Laboratory results: PubChem BioAssay AID1996
Converted amounts (≈) assume the structure as drawn.

conditions: buffer; pH 7.4; 200.0 µM

| SMILES | solubility kinetic |
| --- | --- |
| CC(C)C(C(=O)Nc1ccccc1F)N1C(=O)c2ccccc2C1=O (stereo not drawn) | 38.4 µg/mL (≈ 113 µM) |
| Nc1cc(C(=O)OCC(=O)NCCCc2ccccc2)ccc1Cl | 10.5 µg/mL (≈ 30.3 µM) |
| COC(=O)COc1ccc(-c2nccc(-c3ccccn3)n2)cc1 | 2.4 µg/mL (≈ 7.47 µM) |
| O=C(CCc1ccccc1)NC(=S)NCc1ccco1 | 2.7 µg/mL (≈ 9.36 µM) |
| CCC(C)N1C(=O)CCC1C(=O)NCCc1ccc(Cl)cc1 (stereo not drawn) | > 48.4 µg/mL |
| CC(CCc1ccccc1)NC(=O)COC(=O)c1ccccc1O (stereo not drawn) | 1.8 µg/mL (≈ 5.5 µM) |
| COC(=O)C1CCN(C(=O)CN2C(=O)NC(CC(C)C)C2=O)CC1 (stereo not drawn) | > 50.9 µg/mL |
| Cc1ccc(C)c(NC(=O)c2cnccn2)c1 | 23.9 µg/mL (≈ 105 µM) |
| Cc1cc(NC(=O)Cn2c(=O)oc3ccccc32)no1 | 8.6 µg/mL (≈ 31.5 µM) |
| CCOC(=O)Cn1cnc2scc(-c3ccccc3)c2c1=O | > 47.2 µg/mL |
| CC(C(=O)Nc1ccc(C#N)cc1)N(C)CC(=O)N(C)c1c(N)n(Cc2ccccc2)c(=O)[nH]c1=O (stereo not drawn) | > 73.4 µg/mL |
| COc1ccccc1NS(=O)(=O)c1ccc(C(=O)NCc2ccc(S(N)(=O)=O)cc2)cc1 | 20.3 µg/mL (≈ 42.7 µM) |
| CCN(CC)CCCNCC(=O)Nc1ccc2c(c1)CCC2 | 24.3 µg/mL (≈ 80.1 µM) |
| O=C(CCCOc1ccc(Cl)cc1Cl)Nc1ccccn1 | 0.6 µg/mL (≈ 1.85 µM) |
| Cc1cccc(NC(=O)CCCc2ccccc2)c1 | 31.3 µg/mL (≈ 124 µM) |
| Cc1ccc(-c2nc(C#N)c(NCCCn3ccnc3)o2)cc1 | 0.9 µg/mL (≈ 2.93 µM) |
| CC(=O)c1c(C)[nH]c(C(=O)COC(=O)c2cc(C)oc2C)c1C | 13.1 µg/mL (≈ 41.3 µM) |
| OCCN1CCN(C(=S)Nc2ccccc2)CC1 | > 39.8 µg/mL |
| O=C1NC(=O)C(Cc2cccc(Oc3ccccc3)c2)S1 (stereo not drawn) | > 44.9 µg/mL |
| N#Cc1cccc(NC(=O)CCN2C(=O)C3CCCCC3C2=O)c1 (stereo not drawn) | > 48.8 µg/mL |
| COC(OC)C1Nc2ccccc2C(=O)N1c1ccc(F)cc1 (stereo not drawn) | > 47.4 µg/mL |
| CCCN(CCC)S(=O)(=O)c1ccc(C(=O)O)cc1 | > 42.8 µg/mL |
| CN1CCN(C(=O)c2cc([N+](=O)[O-])ccc2Cl)CC1 | > 42.6 µg/mL |
| CC(C)Nc1nc(-c2ccncc2)nc(-c2ccccc2)c1C#N | < 0.1 µg/mL |

| SMILES | solubility kinetic |
| --- | --- |
| CN(C(=O)Nc1ccccc1)C1CCCCC1 | 8.6 µg/mL (≈ 37 µM) |
| CN(C)S(=O)(=O)c1ccc(Cl)c(NC(=O)COC(=O)CCC2CCCCC2)c1 | 7.3 µg/mL (≈ 16.9 µM) |
| COc1ccccc1NC(=O)CCCCC(=O)Nc1ccccc1OC | 41.8 µg/mL (≈ 117 µM) |
| COc1ccc(NC(=O)C2CCOC2=O)cc1 (stereo not drawn) | > 35.3 µg/mL |
| O=C(COC(=O)c1cc(S(=O)(=O)N2CCOCC2)c(Cl)cc1Cl)NCc1ccco1 | > 71.6 µg/mL |
| O=C(COC(=O)c1cccc(N2C(=O)C3CC=CCC3C2=O)c1)c1ccccc1 (stereo not drawn) | 3.2 µg/mL (≈ 8.22 µM) |
| Cc1ccc(NC(=O)NC(=O)c2cnccc2C(F)(F)F)c(C)c1 | 10.9 µg/mL (≈ 32.3 µM) |
| COc1ccc(NC(=O)C2CCCNC2=O)cc1 (stereo not drawn) | > 37.2 µg/mL |
| Cc1ccccc1C(=O)N1CCc2c([nH]c3ccccc23)C1C(F)(F)F (stereo not drawn) | < 0.4 µg/mL |
| O=C(CN1C(=O)C(=O)N(C2CCCC2)C1=O)NCCc1ccc(F)cc1 | > 54.2 µg/mL |
| CCn1cc(C(=O)N2CCOCC2)c2ccccc21 | > 38.7 µg/mL |
| CN(C)CCCNC(=O)c1cc(Br)ccc1O | 45.2 µg/mL (≈ 150 µM) |
| COc1ccc(C(=O)Nc2cccc3c2CCCC3)c(OC)c1 | < 0.7 µg/mL |
| CC(NC(=O)c1ccco1)C(=O)Nc1nccs1 (stereo not drawn) | > 39.8 µg/mL |
| CC(C)OCCCNC(=O)Cc1ccc(Br)cc1 | 41.6 µg/mL (≈ 132 µM) |
| O=C1C2=C(CCCC2)C(=O)N1CNc1ccccc1 | 33 µg/mL (≈ 129 µM) |
| COCc1ccc(C(=O)Nc2cccc(S(=O)(=O)N(C)c3ccccc3)c2)cc1 | 15.7 µg/mL (≈ 38.2 µM) |
| Cc1ccc(C(=O)NCCNC(=O)Cc2ccccc2)cn1 | > 44.6 µg/mL |
| O=S(=O)(Nc1cc(F)ccc1F)c1cccc2nonc12 | > 46.7 µg/mL |
| CCOc1ccc(Nc2nc(-c3cccnc3)cs2)cc1 | < 0.2 µg/mL |
| Cc1nc(COc2ccccc2Cl)sc1-c1ccnc(N)n1 | 1.2 µg/mL (≈ 3.61 µM) |
| Cn1cc(C(=O)N2CCCCC2)c2ccccc21 | > 36.3 µg/mL |
| Cn1c(N)c(C(=O)CSc2nc(N)cc(N)n2)c(=O)n(C)c1=O | 3 µg/mL (≈ 8.89 µM) |
| CN1CCN(C(=O)c2ccc(F)c(F)c2)CC1 | > 36 µg/mL |

| SMILES | solubility kinetic |
| --- | --- |
| Cn1c(O)c(C=Nc2ccc(Br)cc2)c(=O)n(C)c1=O | 1.2 µg/mL (≈ 3.55 µM) |
| O=C1CSC(=S)N1c1ccc(F)c(Cl)c1 | 1.3 µg/mL (≈ 4.97 µM) |
| Cc1ccc2nc(SCC(=O)Nc3c(F)cccc3F)[nH]c2c1 | 43.4 µg/mL (≈ 130 µM) |
| COc1ccc(Oc2cccc(Cl)c2CNC(=O)CSCC(=O)O)cc1 | > 59.4 µg/mL |
| CC(=O)c1ccc(NC(=S)NCc2ccco2)cc1 | > 41.2 µg/mL |
| O=Cc1sc([O-])nc1-[n+]1ccc2ccccc2c1 | 5.1 µg/mL (≈ 19.9 µM) |
| O=C(/C=C/c1ccccc1F)N1CCN(c2ccccn2)CC1 | 35.8 µg/mL (≈ 115 µM) |
| Cn1c(Cl)cnc1C(O)(c1ccccc1)c1ccccc1 | 10.2 µg/mL (≈ 34.1 µM) |
| O=C(OCc1ccc([N+](=O)[O-])cc1)c1cnc(Cl)c(Cl)c1 | 0.4 µg/mL (≈ 1.22 µM) |
| Cc1ccc(S(=O)(=O)Nc2ccc(Cl)cn2)cc1C | 3.4 µg/mL (≈ 11.5 µM) |
| O=C(CC(Nc1ccccc1)c1ccccc1)C1CC1 (stereo not drawn) | < 0.6 µg/mL |
| O=[N+]([O-])c1cc(/C=N/N2CCOCC2)cs1 | > 36.2 µg/mL |
| O=C(CCC(=O)c1cccs1)NCc1cccnc1 | > 41.2 µg/mL |
| NS(=O)(=O)c1cccc(NC(=O)c2cccc(S(=O)(=O)N3CCCCCC3)c2)c1 | 49.9 µg/mL (≈ 114 µM) |
| CCNC(=S)Nc1cc2oc3ccccc3c2cc1OC | 3.2 µg/mL (≈ 10.7 µM) |
| COc1ccc(CCC(C)N2CCc3ccccc3C2)cc1 (stereo not drawn) | 39.1 µg/mL (≈ 132 µM) |
| OCCN1CCN(Cc2ccc3ccccc3c2)CC1 | 26.9 µg/mL (≈ 99.5 µM) |
| OC(CN1CCC(Cc2ccccc2)CC1)c1ccccc1 (stereo not drawn) | > 44.3 µg/mL |
| CCSc1ccccc1C(=O)Nc1ccc2c(c1)OCO2 | 13.8 µg/mL (≈ 45.8 µM) |
| CC1(C2CC2)NC(=O)N(CC(=O)N2CCN(c3cccc(C(F)(F)F)c3)CC2)C1=O (stereo not drawn) | 21.6 µg/mL (≈ 50.9 µM) |
| Cc1cccc(OCCSc2nc(N)cc(N)n2)c1 | > 41.5 µg/mL |
| O=C(NCC1CC1)Nc1cccc(Cl)c1 | > 33.7 µg/mL |
| COc1ccccc1NC(=O)/C(C#N)=C/c1cccnc1 | 41.3 µg/mL (≈ 148 µM) |
| CC(=O)N1CCN(C(=O)c2oc3ccccc3c2C)CC1 | > 42.9 µg/mL |

| SMILES | solubility kinetic |
| --- | --- |
| N/C(CN1CCCCC1)=N\S(=O)(=O)c1cc(Cl)cc(Cl)c1 | 3.7 µg/mL (≈ 10.6 µM) |
| CCNS(=O)(=O)c1ccc(CCC(=O)N2CCOCC2)cc1 | > 49 µg/mL |
| CCN(CC)CC(=O)Nc1c(C#N)cnn1-c1ccccc1 | > 44.6 µg/mL |
| Cc1ccc(NC(=O)C(c2ccccc2)c2ccccc2)c(O)c1 | 2.1 µg/mL (≈ 6.62 µM) |
| Cc1ccc(C(=O)NCC(=O)OCC(=O)c2c(N)n(C)c(=O)n(C)c2=O)cc1C | 7.3 µg/mL (≈ 18.1 µM) |
| COC(=O)C1C(O)=C(C(C)=Nc2cccc3ccccc23)C(=O)CC1(C)C (stereo not drawn) | 20.3 µg/mL (≈ 55.6 µM) |
| C=CCSc1nc(N)cc(=O)[nH]1 | > 27.5 µg/mL |
| CCc1ccccc1NC(=O)CN(C)Cc1c(O)ccc2ccccc12 | 22.8 µg/mL (≈ 65.4 µM) |
| Cc1cccn2cc(CCNS(=O)(=O)c3cccs3)nc12 | 45.6 µg/mL (≈ 142 µM) |
| CCCn1c(SCC(=O)Nc2ccc(F)c(Cl)c2)nc(O)cc1=O | > 55.8 µg/mL |
| CN(C)c1cc2c(cc1NS(=O)(=O)c1ccccc1)n(C)c(=O)n2C | 48 µg/mL (≈ 133 µM) |
| COc1ccc2[nH]cc(CCNC(=S)NC3CCCC3)c2c1 | 43.6 µg/mL (≈ 137 µM) |
| CCN1C(=O)CC(C(=O)OC)=C1C | 24.6 µg/mL (≈ 134 µM) |
| Cc1cc(C)cc(NC(=O)CS(=O)(=O)c2ccccc2)c1 | 44.2 µg/mL (≈ 146 µM) |
| COc1cc([N+](=O)[O-])ccc1NC(=O)COC(=O)c1c[nH]c(=O)[nH]c1=O | > 54.6 µg/mL |
| COC(=O)C1CCN(S(=O)(=O)Cc2ccccc2Cl)CC1 | > 49.8 µg/mL |
| O=C(Nc1ncccc1O)c1c(O)c2ccccc2[nH]c1=O | 11.1 µg/mL (≈ 37.3 µM) |
| CNC(=S)N1CCN(CCNC2=CC(=O)CC(C)(C)C2)CC1 | 44.4 µg/mL (≈ 137 µM) |
| Cl.c1ccc(CNCc2ccco2)cc1 | 33.5 µg/mL |
| COc1cc(NC(=O)/C=C/c2ccccc2)c(C(=O)O)cc1OC | > 49.1 µg/mL |
| O=C(Nc1cccc(F)c1)NC1CCCCCCC1 | 9 µg/mL (≈ 34 µM) |
| CCCc1c(C)nn(-c2ncccc2[N+](=O)[O-])c1C | > 39 µg/mL |
| O=C(Nc1ccc(C(=O)O)cc1)Nc1ccc([N+](=O)[O-])cc1 | > 45.2 µg/mL |
| CCOC(=O)C1=C(CC)Nc2ccccc2N=C1NC(=O)c1cc(S(=O)(=O)N2CCOCC2)ccc1C | 50.8 µg/mL (≈ 96.5 µM) |

| SMILES | solubility kinetic |
| --- | --- |
| COc1ccc(S(=O)(=O)N2CCCCCC2)cc1C(=O)OCC(=O)NC1CCS(=O)(=O)C1 (stereo not drawn) | > 73.3 µg/mL |
| O=C1NCCCCC1NS(=O)(=O)c1ccc(F)c(F)c1 (stereo not drawn) | 43.1 µg/mL (≈ 142 µM) |
| CC(Oc1ccc(C#N)cc1)C(=O)N1CC=C(c2ccccc2)CC1 (stereo not drawn) | 38.4 µg/mL (≈ 116 µM) |
| CC1(C)C2C/C(=N\O)C(C)(/[N+]([O-])=C/c3cccc([N+](=O)[O-])c3)CC21 (stereo not drawn) | 45.2 µg/mL (≈ 136 µM) |
| CC(=O)c1ccc(OCc2cc([N+](=O)[O-])cc3c2OCOC3)cc1 | 2.6 µg/mL (≈ 7.9 µM) |
| COCCNC(=O)C(=O)Nc1cc2c3c(c1)C(C)C(=O)N3CCC2 (stereo not drawn) | 48.7 µg/mL (≈ 147 µM) |
| CC(C)(C)c1ccc(C(=O)N2CCN(Cc3ccccc3)CC2)cc1 | 28.5 µg/mL (≈ 84.7 µM) |
| CCOC(=O)C1CCN(CCC(=O)Nc2cc(C)ccc2C)CC1 | > 49.9 µg/mL |
| c1ccc2c(c1)CC(CN1CCNCC1)O2 (stereo not drawn) | > 32.7 µg/mL |
| CCOC(=O)N1CCN(c2ccncc2S(=O)(=O)N2CCCCC2)CC1 | > 57.4 µg/mL |
| CSc1ncnc2sc(C)c(C)c12 | 1.3 µg/mL (≈ 6.18 µM) |
| CC1(C)CN2C(=O)c3ccccc3C2(C)S1 (stereo not drawn) | > 35 µg/mL |
| O=P(c1ccccc1)(c1ccccc1)C(O)c1ccccn1 (stereo not drawn) | > 46.4 µg/mL |
| CCN(C(=O)COc1ccc2ccc(=O)oc2c1)C1CCCCC1 | > 49.4 µg/mL |
| COc1ccccc1NS(=O)(=O)c1ccc(C(=O)NCc2ccco2)cc1 | 53 µg/mL (≈ 137 µM) |
| O=[N+]([O-])c1ccc(Cl)c([N+](=O)[O-])c1 | 13.8 µg/mL (≈ 68.1 µM) |
| CC(=O)Nc1ccc(C(=O)NC2CCSc3ccccc32)cc1 (stereo not drawn) | 16.6 µg/mL (≈ 50.9 µM) |
| Fc1ccc(NC(=S)N2CCc3ccccc3C2)c(F)c1 | 37.3 µg/mL (≈ 123 µM) |
| Cc1ccc(CN2CCN(C(=O)c3cccc4ccccc34)CC2)cc1.O=C(O)C(=O)O | 59.6 µg/mL |
| Cn1c(N)c(C(=O)COC(=O)Cc2ccc(Br)cc2)c(=O)n(C)c1=O | 0.7 µg/mL (≈ 1.71 µM) |
| CSc1ccc(CN2CCSCC2)cc1 | 17 µg/mL (≈ 71 µM) |
| O=S(=O)(c1ccc(=S)[nH]c1)N1CCOCC1 | 21.6 µg/mL (≈ 83 µM) |
